Measured values from US20090175981A1, “COMPOSITIONS, METHODS AND USES FOR A NOVEL FAMILY OF PEPTIDES” (priority 2004, published 2009).
“And” between values parts separate entries of the source, which are not always exact repeats. Identical values can stand only once. Marks after values point to notes of the source that are not given here.

Legend:
[1] = target: A-domain of BT NRPS Module 5 (Brevibacillus texasporus, UniProt Q2VQ15); assay: ATP-PPi exchange assay, Module 5 A-domain; format: biochemical; settings: for relative activation (highest activity = 100%): 0.5 mM amino acid; for Km: read-out: apparent Km
Chain of A-domain of BT NRPS Module 5 (Q2VQ15 entry or part of it): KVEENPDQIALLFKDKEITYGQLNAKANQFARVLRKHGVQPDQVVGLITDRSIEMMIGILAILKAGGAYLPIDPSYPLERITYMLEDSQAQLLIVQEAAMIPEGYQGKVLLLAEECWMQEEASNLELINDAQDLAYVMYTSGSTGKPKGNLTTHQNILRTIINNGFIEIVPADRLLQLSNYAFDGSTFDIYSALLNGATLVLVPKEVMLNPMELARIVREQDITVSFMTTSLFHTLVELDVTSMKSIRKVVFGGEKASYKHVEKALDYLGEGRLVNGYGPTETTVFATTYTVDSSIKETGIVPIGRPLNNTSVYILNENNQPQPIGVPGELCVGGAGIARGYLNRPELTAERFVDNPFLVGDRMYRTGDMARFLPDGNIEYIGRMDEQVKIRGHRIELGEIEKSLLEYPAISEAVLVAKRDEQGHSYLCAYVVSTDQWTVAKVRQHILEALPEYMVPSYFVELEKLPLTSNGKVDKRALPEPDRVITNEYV
Procedure: (§1) Cloning, overexpression, and purification of His10-tagged BT A-domain proteins. DNA fragments encoding the A-domains of the BT NRPS Modules 8, 5, 7, 4 and 2 (Bt8A, 8t5A, Bt7A, Bt4A and Bt2A) were PCR-amplified and the PCR products were inserted into the His10-tag recombinant protein expression vector pET16b (Novagen). The A-domain borders were determined as defined by (Konz, et al., 1999). The expression constructs were transformed into the E. coli BL21-AI strain (Invitrogen). Transformants were grown in L-broth at 37° C. to an A600 of 0.6 and then induced with 1 mM IPTG (isopropyl-β-D-thiogalactopyranoside) plus 0.2% L-arabinose. The cells were allowed to grow for two additional hours at 30° C. before being harvested. Purification of the His10-tag recombinant proteins was achieved using the TALON metal affinity resins (BD Biosciences) under conditions recommended in the manual with modifications. Briefly, the E. coli cells were broken by sonication. Cell lysates were cleared by centrifugation at 25,000×g for one hour. His-tagged recombinant proteins were then incubated with the TALON resin, washed, and eluted with 500 mM imidazole. Eluted proteins were dialyzed against a buffer (50 mM HEPES, pH 8.0, 100 mM sodium chloride, 10 mM magnesium chloride, and 1 mM EDTA) and then analyzed with SDS PAGE plus Coomassie Blue staining. […] Concentrations of the purified proteins were determined by using the calculated molar extinction coefficient for the A280.
(§2) ATP-PPi exchange assay. ATP-PPi exchange assays were performed to determine the substrate specificity of an A-domain. ATP-PPi exchanges were assayed as previously described (Stachelhaus, et al., 1998) with minor modifications. The assay mixture contained 50 mM HEPES (pH 8.0), 100 mM NaCl, 10 mM MgCl2, 2 mM ATP, 0.5 mM amino acid, 0.05 mM PPi, 0.15 μCi tetrasodium [^32P]pyrophosphate. Exchange was initiated by addition of purified recombinant A-domain proteins to a total volume of 0.1 ml. The protein concentrations were 0.2 μM for Module 4 and Module 5 A-domains while 2 μM for Module 7 and Module 8 A-domains. After incubation at 37° C. for 15 min, the reaction was stopped by addition of 0.5 ml of Terminaton Mix (100 mM tetrasodium pyrophosphate, 3.5% HClO4, and 1.6% [w/v] activated charcoal). The charcoal was pelleted by centrifugation, washed first with 40 mM pyrophosphate plus 1.4% perchloric acid and then with water, and was re-suspended in 0.5 ml of water. The charcoal/water suspension was added to a scintillation vial containing 5.0 ml of scintillation fluid, and the bound radioactivity was determined by liquid scintillation counting. The apparent Km values were determined with substrate concentrations ranging from 0.1 to 10 mM.
(§3) Since a purified recombinant A-domain of an NRPS module can selectively and efficiently activate the cognate amino acid substrate of the NRPS module in an ATP-PPi exchange assay (Konz, et al., 1999; Mootz & Marahiel, 1997), ATP-PPi exchange assays have been used to experimentally establish NRPS module specificities and novel NRPS codons. Recombinant A-domains of Modules 8, 5, 7, 4 and 2 of the BT NRPS were produced and purified as described in Methods and Materials. Almost completely soluble recombinant A-domain proteins were obtained. A-domain specificities were determined in ATP-PPi exchange and aa Km assays (see Methods and Materials), and the results are shown in FIG. 5. […]

[2] = target: A-domain of BT NRPS Module 4 (Bt4A) (Brevibacillus texasporus, UniProt Q2VQ15); assay: ATP-PPi exchange assay, Module 4 A-domain; format: biochemical; settings: for relative activation (highest activity = 100%): 0.5 mM amino acid
Chain of A-domain of BT NRPS Module 4 (Bt4A) (Q2VQ15 entry or part of it): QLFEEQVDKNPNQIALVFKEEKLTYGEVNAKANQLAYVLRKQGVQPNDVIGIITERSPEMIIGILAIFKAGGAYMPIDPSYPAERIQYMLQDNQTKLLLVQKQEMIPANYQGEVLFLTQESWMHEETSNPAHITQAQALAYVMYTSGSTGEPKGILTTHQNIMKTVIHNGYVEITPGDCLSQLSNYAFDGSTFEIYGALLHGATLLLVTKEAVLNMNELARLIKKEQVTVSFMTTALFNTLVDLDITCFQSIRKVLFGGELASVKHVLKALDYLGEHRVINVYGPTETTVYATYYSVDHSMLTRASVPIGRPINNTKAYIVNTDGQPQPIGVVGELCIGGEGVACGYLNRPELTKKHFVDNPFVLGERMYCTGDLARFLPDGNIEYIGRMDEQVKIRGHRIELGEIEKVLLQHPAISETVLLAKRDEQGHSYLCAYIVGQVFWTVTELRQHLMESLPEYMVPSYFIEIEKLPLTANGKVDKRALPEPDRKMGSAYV
Procedure: as §1
(§4) ATP-PPi exchange assay. ATP-PPi exchange assays were performed to determine the substrate specificity of an A-domain. ATP-PPi exchanges were assayed as previously described (Stachelhaus, et al., 1998) with minor modifications. The assay mixture contained 50 mM HEPES (pH 8.0), 100 mM NaCl, 10 mM MgCl2, 2 mM ATP, 0.5 mM amino acid, 0.05 mM PPi, 0.15 μCi tetrasodium [^32P]pyrophosphate. Exchange was initiated by addition of purified recombinant A-domain proteins to a total volume of 0.1 ml. The protein concentrations were 0.2 μM for Module 4 and Module 5 A-domains while 2 μM for Module 7 and Module 8 A-domains. […] The charcoal/water suspension was added to a scintillation vial containing 5.0 ml of scintillation fluid, and the bound radioactivity was determined by liquid scintillation counting. […]
as §3, with “Recombinant A-domains of Modules 8, 5, 7, 4 and 2 of the BT NRPS were produced and purified as described in Methods and Materials. Almost completely soluble recombinant A-domain proteins were obtained.” left out

[3] = test system: A-domain of BT NRPS Module 2 (Bt2A); assay: ATP-PPi exchange assay, Module 2 A-domain; format: biochemical, Brevibacillus texasporus; settings: 0.5 mM amino acid
Procedure: as §1, §2, §3

straight run broilers = assay: Growth and feed conversion of 3-wk old broilers in batteries, pelleted starter feed (Studies 3-1 and 3-2); format: in vivo, chicken; settings: BT1583 12 ppm, BMD 50 ppm, COB 90 ppm, alone or combined, pelleted feed
Text: Eight (8) study repetitions per treatment were used, again with 4 birds per pen.

broiler chickens = assay: 42-day broiler floor pen trial with natural colibacillosis challenge; format: in vivo, chicken; settings: for Day 42 Feed/Gain / Day 42 Gain/Bird / Day 42 Mortality (%) / Day 42 Adjusted Feed/Gain: MON 99 ppm, BT1583 12 ppm, BMD 55 ppm; for Day 42 Feed/Gain / Day 42 Gain/Bird: alone or combined; for Day 42 Mortality (%): acute and chronic colibacillosis; for Day 42 Adjusted Feed/Gain: adjusted for weight of mortality
Procedure: A broiler floor pen trial to compare the performance of a new anti-microbial designated for this project as BT1583 alone and in combination with the widely used coccidiostat monensin (MON) to MON fed alone, MON in combination with the also widely used antimicrobial Bacitracin MD (BMD) and BMD alone.
The following levels of each treatment were evaluated:
The study design included 10 pens per treatment and 40 birds per pen housed on day of hatch. Two basal corn-soy based diets of decreasing protein (approximately 23 to 20%) and increasing metabolizable energy (approximately 1400 to 1455 kcal/lb) were used from Day 0 to 21 (starter feed) and Days 22 to 42 (grower feed), respectively. Treatment premixes were measured and blended into diets at required levels. Between days 0 and 21 mortality was less than 1% with all birds growing optimally and of high health across all groups.
Beginning on study day 22, the study director modulated house temperature and air flow to mimic industry conditions conducive to outbreaks of colibacillosis within naïve broiler flocks. This was done to stimulate a natural challenge for this study. Mortality climbed to a house average of approximately 10% by Day 42. A majority of these deaths occurred in groups not receiving BT1583 or MON. Lesions were consistent with those of colibacillosis (air sac, pneumonia, peri-hepatitis, peri-carditis and extreme morbidity). All mortality was documented (weight at death and post-mortem observations). All birds and feeds were weighed at 42 days. All remaining birds were euthanized on Day 42 by asphyxiation with the carcasses submitted for rendering.
The following variables were tested: Response Variables: Gain Per Bird, Feed Per Gain, Mortality (%), Adjusted Feed Per Gain. F test from One Way ANOVA with one blocking factor=location, at Day 42 using 0.05 level of significance.
All Response Variables: LSD T-test procedure for pair-wise comparisons with Type 1 error of means when ANOVA F ratio is significant, overall significance level of 0.05 used. Lines below means (see Table 30, below) indicate groups with insignificant differences in means.
Adjusted Feed/Gain: The total weight of mortality in each pen was added to the final live weight, that value reduced by subtracting the initial weight and then dividing that value into the Total feed consumed to calculate the Adjusted Feed/Gain.

[4] = target: A-domain of BT NRPS Module 8 (Bt8A) (Brevibacillus texasporus, UniProt Q2VQ14); assay: ATP-PPi exchange assay, Module 8 A-domain; format: biochemical; settings: for relative activation (highest activity = 100%): 0.5 mM amino acid
Chain of A-domain of BT NRPS Module 8 (Bt8A) (Q2VQ14 entry or part of it): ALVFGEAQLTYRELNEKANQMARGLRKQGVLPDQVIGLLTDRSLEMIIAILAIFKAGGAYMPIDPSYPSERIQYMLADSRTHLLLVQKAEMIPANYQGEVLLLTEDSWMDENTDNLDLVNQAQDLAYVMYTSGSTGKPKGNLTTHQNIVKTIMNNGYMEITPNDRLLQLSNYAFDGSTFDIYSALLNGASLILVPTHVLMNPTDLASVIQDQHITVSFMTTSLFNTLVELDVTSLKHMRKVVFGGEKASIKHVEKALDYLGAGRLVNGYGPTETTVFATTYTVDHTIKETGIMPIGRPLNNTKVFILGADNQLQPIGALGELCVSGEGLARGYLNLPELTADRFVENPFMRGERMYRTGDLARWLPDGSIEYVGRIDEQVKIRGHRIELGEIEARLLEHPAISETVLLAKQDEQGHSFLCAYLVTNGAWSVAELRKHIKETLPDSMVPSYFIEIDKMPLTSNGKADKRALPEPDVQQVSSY
Procedure: as §1, §4
as §3, with “Recombinant A-domains of Modules 8, 5, 7, 4 and 2 of the BT NRPS were produced and purified as described in Methods and Materials. Almost completely soluble recombinant A-domain proteins were obtained.” left out

[5] = target: A-domain of BT NRPS Module 7 (Bt7A) (Brevibacillus texasporus, UniProt Q2VQ15); assay: ATP-PPi exchange assay, Module 7 A-domain; format: biochemical; settings: 0.5 mM amino acid
Chain of A-domain of BT NRPS Module 7 (Bt7A) (Q2VQ15 entry or part of it): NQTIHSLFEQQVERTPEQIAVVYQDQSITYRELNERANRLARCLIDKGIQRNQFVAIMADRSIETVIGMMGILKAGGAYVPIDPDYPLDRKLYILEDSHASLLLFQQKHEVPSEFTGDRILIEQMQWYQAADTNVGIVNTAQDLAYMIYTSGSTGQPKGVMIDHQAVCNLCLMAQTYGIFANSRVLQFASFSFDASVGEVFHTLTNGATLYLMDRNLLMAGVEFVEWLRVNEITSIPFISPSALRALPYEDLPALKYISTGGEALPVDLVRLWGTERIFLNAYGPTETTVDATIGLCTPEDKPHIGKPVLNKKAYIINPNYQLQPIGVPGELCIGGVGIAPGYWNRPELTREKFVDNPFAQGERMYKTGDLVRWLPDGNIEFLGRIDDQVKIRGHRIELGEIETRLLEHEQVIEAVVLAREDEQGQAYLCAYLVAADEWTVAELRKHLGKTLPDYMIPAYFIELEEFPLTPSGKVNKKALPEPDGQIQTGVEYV

CC(C)C[C@H](N)C(=O)O [L-Leu]
relative activation (highest activity = 100%) [1]: 17% | relative activation (highest activity = 100%) [2]: 7% | relative activation (highest activity = 100%) [3]: 98%

Bacitracin MD [BMD, reference compound]
20-day cumulative feed conversion rate, Mean (straight run broilers): 1.3397 | 21-day cumulative feed conversion rate, Estimated Marginal Mean (straight run broilers): 1.340 | 21-day cumulative weight gain, Mean (straight run broilers): 832.9688 and 832.969 | Day 42 Feed/Gain (broiler chickens): 2.147^c | Day 42 Gain/Bird (broiler chickens): 3.971^cd lb | Day 42 Mortality (%) (broiler chickens): 18.25^bc % | Day 42 Adjusted Feed/Gain (broiler chickens): 1.838^bc

CC[C@H](C)[C@H](N)C(=O)O [L-Ile]
relative activation (highest activity = 100%) [4]: 4% | relative activation (highest activity = 100%) [1]: 23% | Km [1]: 2780 µM | relative activation (highest activity = 100%) [2]: 100% | Km ([2]; read-out: apparent Km): 500 µM | relative activation (highest activity = 100%) [3]: 19%

CC[C@@]1([C@@H]2O[C@@H]([C@H]3O[C@@](O)(CO)[C@H](C)C[C@@H]3C)C[C@@H]2C)CC[C@H]([C@]2(C)CC[C@]3(C[C@H](O)[C@@H](C)[C@@H]([C@@H](C)[C@@H](OC)[C@H](C)C(=O)O)O3)O2)O1 [Monensin, monensin]
20-day cumulative feed conversion rate, Mean (straight run broilers): 1.3712 | 21-day cumulative feed conversion rate, Estimated Marginal Mean (straight run broilers): 1.371 | 21-day cumulative weight gain, Mean (straight run broilers; listed as COB): 792.8438 and 792.844 | Day 42 Feed/Gain (broiler chickens): 1.854^b | Day 42 Gain/Bird (broiler chickens): 4.111^bcd lb | Day 42 Mortality (%) (broiler chickens): 8.00^a % | Day 42 Adjusted Feed/Gain (broiler chickens): 1.761^b | mortality rate compared with non-supplemented controls (broiler chickens; alone or in combination): lower mortality rates

NCCCC[C@H](N)C(=O)O [L-Lys]
relative activation (highest activity = 100%) [4]: 10% | activation [5]: only amino acid that activated

CSCC[C@H](N)C(=O)O [L-Met]
relative activation (highest activity = 100%) [3]: 100%

CC(C)[C@H](N)C(=O)O [L-Val]
relative activation (highest activity = 100%) [4]: 100% | Km ([4]; read-out: apparent Km): 2750 µM | relative activation (highest activity = 100%) [1]: 100% | Km [1]: 1110 µM | relative activation (highest activity = 100%) [2]: 9% | relative activation (highest activity = 100%) [3]: 67%

N[C@@H](Cc1ccccc1)C(=O)O [L-Phe]
relative activation (highest activity = 100%) [3]: 3.5%
